Experimental data from patent publication US9845349B2 (priority 2012, dated 2017).
Where “and” joins values, the source holds several entries; their conditions need not be identical. Identical values can stand only once.

The substances below were run against LFG2:4B10 mAb. Settings: not given.
For AFKDEIGGGSK-biotin, the Kd was 28.7 nM and 35.1 nM and the “Response R” value was 0.556 and 0.5352.
For TAKDEIGGGSK-biotin, the Kd was 31.5 nM and 20.9 nM and the “Response R” value was 3.7854 and 3.7743.
For TFADEIGGGSK-biotin, the Kd was 25.2 nM and 23.9 nM and the “Response R” value was 0.4475 and 0.4596.
TFKAEIGGGSK-biotin was tested, and the “Response R” value was 0.2612 and 0.2492.
In the case of TFKDAIGGGSK-biotin, the Kd is reported as 24.5 nM and the “Response R” value is reported as 1.0132.
In the case of TFKDEAGGGSK-biotin, the Kd is reported as 16.4 nM and the “Response R” value is reported as 5.2909.
TFKDEIGGGSK-biotin was tested, and the Kd was 9.97 nM, the “Response R” value was 4.8387 and the binding response was 4.83 nm. For the same substance, the “improvement in binding response versus native epitope THQDEIYEQK-biotin” value was ~7 fold.
For TFQDEIGGGSK-biotin, the Kd was 34.4 nM and the “Response R” value was 1.3414.
THKDEIGGGSK-biotin was tested, and the Kd was 60 nM and the “Response R” value was 2.3704.
THQDEIYEQK-biotin was tested, and the Kd was 53.1 nM, the “Response R” value was 0.7024 and the binding response was 0.7 nm.

Same assay, conditions: read-out: dissociation (KD)
With TFKDEIGGGSK-biotin the Kd was 13.9 nM.
With THQDEIYEQK-biotin the Kd was 53 nM.
